We go through 21 molecules from patent US11312719B2, “9-substituted amino triazolo quinazoline derivatives as adenosine receptor antagonists, pharmaceutical compositions and their use” (Merck Sharp & Dohme Corp., priority 2018, dated 2022).

Bounds are passed on as bounds.

For one assay, the target named is human A2A receptors (Homo sapiens (Human), UniProt P29274). Briefly: A2A antagonism in cAMP cell-based assay (LANCE cAMP, HEK293). The settings on record: HEK293 cells expressing human A2A receptor. In outline: (§1)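 HEK293 cells expressing human A2A or A2B, in HBSS/5 mM HEPES/200 nM rolipram, were preincubated with compound (0.5–10,000 nM, 0.25% DMSO) 30 min at 37° C. Adenosine was then added from 300 nM (A2A) or 600 nM (A2B) solution for 30 min.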

For the next assay, the target named is human A2B receptors (Homo sapiens (Human), UniProt P29275). Description: A2B antagonism in cAMP cell-based assay (LANCE cAMP, HEK293). Conditions: HEK293 cells expressing human A2B receptor; for A2B cAMP % Inh. @10000 nM: at 10000 nM. Put shortly: as §1
Chain of human A2B receptors (P29275 whole entry): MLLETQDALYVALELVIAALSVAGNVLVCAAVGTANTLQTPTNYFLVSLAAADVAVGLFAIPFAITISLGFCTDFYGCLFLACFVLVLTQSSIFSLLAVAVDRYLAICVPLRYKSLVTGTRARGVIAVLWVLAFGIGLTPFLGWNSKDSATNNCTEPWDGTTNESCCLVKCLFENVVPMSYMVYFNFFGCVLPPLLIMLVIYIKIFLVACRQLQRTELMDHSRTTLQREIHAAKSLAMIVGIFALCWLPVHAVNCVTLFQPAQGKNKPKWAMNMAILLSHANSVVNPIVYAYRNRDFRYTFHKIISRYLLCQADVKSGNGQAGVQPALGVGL

Chain of human A2A receptors (P29274 whole entry): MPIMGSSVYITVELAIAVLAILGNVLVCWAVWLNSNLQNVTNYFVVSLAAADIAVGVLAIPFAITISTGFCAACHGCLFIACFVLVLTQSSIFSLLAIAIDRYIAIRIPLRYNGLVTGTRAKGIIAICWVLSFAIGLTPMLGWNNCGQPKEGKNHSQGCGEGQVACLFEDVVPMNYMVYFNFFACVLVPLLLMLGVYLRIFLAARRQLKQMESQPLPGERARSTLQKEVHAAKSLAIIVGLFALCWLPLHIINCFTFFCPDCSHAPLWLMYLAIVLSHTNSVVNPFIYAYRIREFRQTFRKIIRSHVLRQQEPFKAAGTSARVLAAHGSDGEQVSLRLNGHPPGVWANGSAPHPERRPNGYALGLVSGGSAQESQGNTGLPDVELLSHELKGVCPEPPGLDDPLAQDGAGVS

For `COc1cc2nc(N)n3nc([C@@H]4CCCN(c5cnn(C(C)C(C)O)c5C)C4)nc3c2cc1F` (single isomer, unassigned) [Example 195, (2S,3S or 2R,3R)-3-(4-((R)-3-(5-amino-9-fluoro-8-methoxy-[1,2,4]triazolo[1,5-c]quinazolin-2-yl)piperidin-1-yl)-5-methyl-1H-pyrazol-1-yl)butan-2-ol], the IC50 against human A2A receptors was found to be 3.4 nM; on human A2B receptors it was 389 nM.
For `COc1cc2nc(N)n3nc([C@@H]4CCCN(c5cnn(C(C)C(C)O)c5C)C4)nc3c2cc1F` (single isomer, unassigned) [Example 196, (2R,3R or 2S,3S)-3-(4-((R)-3-(5-amino-9-fluoro-8-methoxy-[1,2,4]triazolo[1,5-c]quinazolin-2-yl)piperidin-1-yl)-5-methyl-1H-pyrazol-1-yl)butan-2-ol], in that order: 3.7 nM and 475 nM.
For `CC(O)C(C)n1cc(N2CCC[C@@H](c3nc4c5cc(F)cc(F)c5nc(N)n4n3)C2)cn1` (single isomer, unassigned) [Example 197, (2S,3S or 2R,3R)-3-(4-((R)-3-(5-amino-7,9-difluoro-[1,2,4]triazolo[1,5-c]quinazolin-2-yl)piperidin-1-yl)-1H-pyrazol-1-yl)butan-2-ol], the values for the IC50 on human A2A receptors and on human A2B receptors were 6.4 nM and 93 nM, respectively.
For `CC(O)C(C)n1cc(N2CCC[C@@H](c3nc4c5cc(F)cc(F)c5nc(N)n4n3)C2)cn1` (single isomer, unassigned) [Example 198, (2R,3R or 2S,3S)-3-(4-((R)-3-(5-amino-7,9-difluoro-[1,2,4]triazolo[1,5-c]quinazolin-2-yl)piperidin-1-yl)-1H-pyrazol-1-yl)butan-2-ol], in that order: 4.3 nM and 52.4 nM.
For `COc1cc2nc(N)n3nc([C@@H]4CCCN(c5cnn(C(C)C(C)O)c5)C4)nc3c2cc1F` (single isomer, unassigned) [Example 199, (2R,3S or 2S,3R)-3-(4-((R)-3-(5-amino-9-fluoro-8-methoxy-[1,2,4]triazolo[1,5-c]quinazolin-2-yl)piperidin-1-yl)-1H-pyrazol-1-yl)butan-2-ol], the 50% inhibitory concentration (IC50) against human A2A receptors was 2.5 nM; at human A2B receptors, 97.5 nM.
Turning to `COc1cc2nc(N)n3nc([C@@H]4CCCN(c5cnn(C(C)C(C)O)c5)C4)nc3c2cc1F` (single isomer, unassigned) [Example 200, (2S,3R or 2R,3S)-3-(4-((R)-3-(5-amino-9-fluoro-8-methoxy-[1,2,4]triazolo[1,5-c]quinazolin-2-yl)piperidin-1-yl)-1H-pyrazol-1-yl)butan-2-ol], the results for the IC50 on human A2A receptors and against human A2B receptors were 2.5 nM and 102 nM, respectively.
Consider `COc1cc(F)cc2c1nc(N)n1nc([C@@H]3CCCN(c4cnn(C(C)C(C)O)c4)C3)nc21` (single isomer, unassigned) [Example 201, (2R,3S or 2S,3R)-3-(4-((R)-3-(5-amino-9-fluoro-7-methoxy-[1,2,4]triazolo[1,5-c]quinazolin-2-yl)piperidin-1-yl)-1H-pyrazol-1-yl)butan-2-ol], for which the IC50 against human A2A receptors came out at 1.9 nM; on human A2B receptors it was 38.4 nM.
For the molecule `COc1cc(F)cc2c1nc(N)n1nc([C@@H]3CCCN(c4cnn(C(C)C(C)O)c4)C3)nc21` (single isomer, unassigned) [Example 202, (2S,3R or 2R,3S)-3-(4-((R)-3-(5-amino-9-fluoro-7-methoxy-[1,2,4]triazolo[1,5-c]quinazolin-2-yl)piperidin-1-yl)-1H-pyrazol-1-yl)butan-2-ol], the IC50 on human A2A receptors amounted to 1.4 nM; on human A2B receptors, 62.4 nM.
In the case of `CC(O)C(C)n1cc(N2CCC[C@@H](c3nc4c5cc(F)cc(F)c5nc(N)n4n3)C2)cn1` (single isomer, unassigned) [Example 203, (2R,3S or 2S,3R)-3-(4-((R)-3-(5-amino-7,9-difluoro-[1,2,4]triazolo[1,5-c]quinazolin-2-yl)piperidin-1-yl)-1H-pyrazol-1-yl)butan-2-ol], the IC50 against human A2A receptors was 7.7 nM; on human A2B receptors, 53.2 nM.
For `CC(O)C(C)n1cc(N2CCC[C@@H](c3nc4c5cc(F)cc(F)c5nc(N)n4n3)C2)cn1` (single isomer, unassigned) [Example 204, (2S,3R or 2R,3S)-3-(4-((R)-3-(5-amino-7,9-difluoro-[1,2,4]triazolo[1,5-c]quinazolin-2-yl)piperidin-1-yl)-1H-pyrazol-1-yl)butan-2-ol], in that order: 7.8 nM and 87.7 nM.
Taken in the same sequence, the figures for `COc1cc(F)cc2c1nc(N)n1nc(C3CC(C)CN(c4cn(C(C)(C)C(C)O)nc4C)C3)nc21` (single isomer, unassigned) [Example 205, (R or S)-3-(4-((3R,5S or 3S,5R)-3-(5-amino-9-fluoro-7-methoxy-[1,2,4]triazolo[1,5-c]quinazolin-2-yl)-5-methylpiperidin-1-yl)-3-methyl-1H-pyrazol-1-yl)-3-methylbutan-2-ol] were 7 nM and 1150 nM.
For `COc1cc(F)cc2c1nc(N)n1nc(C3CC(C)CN(c4cn(C(C)(C)C(C)O)nc4C)C3)nc21` (single isomer, unassigned) [Example 206, (S or R)-3-(4-((3R,5S or 3S,5R)-3-(5-amino-9-fluoro-7-methoxy-[1,2,4]triazolo[1,5-c]quinazolin-2-yl)-5-methylpiperidin-1-yl)-3-methyl-1H-pyrazol-1-yl)-3-methylbutan-2-ol], in that order: 13 nM and 4310 nM.
Turning to `COc1cc(F)cc2c1nc(N)n1nc(C3CC(C)CN(c4cn(C(C)(C)C(C)O)nc4C)C3)nc21` (single isomer, unassigned) [Example 207, (R or S)-3-(4-((3S,5R or 3R,5S)-3-(5-amino-9-fluoro-7-methoxy-[1,2,4]triazolo[1,5-c]quinazolin-2-yl)-5-methylpiperidin-1-yl)-3-methyl-1H-pyrazol-1-yl)-3-methylbutan-2-ol], the IC50 is 0.9 nM on human A2A receptors and 10.4 nM against human A2B receptors.
For `COc1cc2nc(N)n3nc([C@@H]4C[C@H](C)CN(c5cn([C@@H](C)[C@H](C)O)nc5C)C4)nc3c2cc1F` (single isomer, unassigned) [Example 208, (2S,3S or 2R,3R)-3-(4-((3R,5S or 3S,5R)-3-(5-amino-9-fluoro-8-methoxy-[1,2,4]triazolo[1,5-c]quinazolin-2-yl)-5-methylpiperidin-1-yl)-3-methyl-1H-pyrazol-1-yl)butan-2-ol], in that order: 0.7 nM and 2800 nM.
Consider `COc1cc2nc(N)n3nc([C@@H]4C[C@H](C)CN(c5cn([C@H](C)[C@@H](C)O)nc5C)C4)nc3c2cc1F` (single isomer, unassigned) [Example 209, (2R,3R or 2S,3S)-3-(4-((3R,5S or 3S,5R)-3-(5-amino-9-fluoro-8-methoxy-[1,2,4]triazolo[1,5-c]quinazolin-2-yl)-5-methylpiperidin-1-yl)-3-methyl-1H-pyrazol-1-yl)butan-2-ol], for which the figures for the IC50 at human A2A receptors and on human A2B receptors were 0.7 nM and 635 nM, respectively.
At human A2A receptors, `COc1cc2nc(N)n3nc([C@H]4C[C@@H](C)CN(c5cn([C@H](C)[C@@H](C)O)nc5C)C4)nc3c2cc1F` (single isomer, unassigned) [Example 210, (2R,3R or 2S,3S)-3-(4-((3S,5R or 3R,5S)-3-(5-amino-9-fluoro-8-methoxy-[1,2,4]triazolo[1,5-c]quinazolin-2-yl)-5-methylpiperidin-1-yl)-3-methyl-1H-pyrazol-1-yl)butan-2-ol] had an IC50 of 16.2 nM. At human A2B receptors, the “A2B cAMP % Inh. @10000 nM” value is reported as 35% Inh.
For `COc1cc2nc(N)n3nc([C@H]4C[C@@H](C)CN(c5cn([C@@H](C)[C@H](C)O)nc5C)C4)nc3c2cc1F` (single isomer, unassigned) [Example 211, (2S,3S or 2R,3R)-3-(4-((3S,5R or 3R,5S)-3-(5-amino-9-fluoro-8-methoxy-[1,2,4]triazolo[1,5-c]quinazolin-2-yl)-5-methylpiperidin-1-yl)-3-methyl-1H-pyrazol-1-yl)butan-2-ol], the IC50 is 89.3 nM against human A2A receptors and greater than 10000 nM against human A2B receptors.
The molecule `Cc1nn(C(C)C(C)O)cc1N1CC(C)CC(c2nc3c4cc(F)cc(F)c4nc(N)n3n2)C1` (single isomer, unassigned) [Example 212, (2S,3S or 2R,3R)-3-(4-((3R,5S or 3S,5R)-3-(5-amino-7,9-difluoro-[1,2,4]triazolo[1,5-c]quinazolin-2-yl)-5-methylpiperidin-1-yl)-3-methyl-1H-pyrazol-1-yl)butan-2-ol] displayed a half-maximal inhibitory concentration (IC50) against human A2A receptors of 122 nM. Besides, the “A2B cAMP % Inh. @10000 nM” value at human A2B receptors came to 27% Inh.
As to `Cc1nn(C(C)C(C)O)cc1N1CC(C)CC(c2nc3c4cc(F)cc(F)c4nc(N)n3n2)C1` (single isomer, unassigned) [Example 213, (2R,3R or 2S,3S)-3-(4-((3R,5S or 3S,5R)-3-(5-amino-7,9-difluoro-[1,2,4]triazolo[1,5-c]quinazolin-2-yl)-5-methylpiperidin-1-yl)-3-methyl-1H-pyrazol-1-yl)butan-2-ol], the concentration for half-maximal inhibition (IC50) against human A2A receptors is 331 nM; against human A2B receptors it was greater than 10000 nM.
Taken in the same sequence, the figures for `Cc1nn(C(C)C(C)O)cc1N1CC(C)CC(c2nc3c4cc(F)cc(F)c4nc(N)n3n2)C1` (single isomer, unassigned) [Example 214, (2R,3R or 2S,3S)-3-(4-((3S,5R or 3R,5S)-3-(5-amino-7,9-difluoro-[1,2,4]triazolo[1,5-c]quinazolin-2-yl)-5-methylpiperidin-1-yl)-3-methyl-1H-pyrazol-1-yl)butan-2-ol] were 0.5 nM and 34.1 nM.
As to `Cc1nn(C(C)C(C)O)cc1N1CC(C)CC(c2nc3c4cc(F)cc(F)c4nc(N)n3n2)C1` (single isomer, unassigned) [Example 215, (2S,3S or 2R,3R)-3-(4-((3S,5R or 3R,5S)-3-(5-amino-7,9-difluoro-[1,2,4]triazolo[1,5-c]quinazolin-2-yl)-5-methylpiperidin-1-yl)-3-methyl-1H-pyrazol-1-yl)butan-2-ol], the concentration for half-maximal inhibition (IC50) at human A2A receptors turned out to be 0.4 nM; against human A2B receptors, 27.5 nM.
